PubChem BioAssay AID1195 (EPA DSSTox, 2008)

Test system: human maximum recommended daily dose, FDA database
Test: DSSTox (FDAMDD) FDA Maximum (Recommended) Daily Dose Database
Conditions: hits give low values
Outline: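 MRDD values come from clinical trials with daily oral dosing, usually for 3–12 months, for the average adult, in mg/day converted to mg/kg-bw/day assuming 60 kg. Antineoplastic mg/m2 doses are divided by 37. Activity score maps log10(1/MRDD mmol) onto 1–100.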

[1] = TherapeuticCategory: antihypertensive
[2] = TherapeuticCategory: antiemetic
[3] = TherapeuticCategory: antibacterial
[4] = TherapeuticCategory: bronchodilator
[5] = TherapeuticCategory: topical anesthetic
[6] = TherapeuticCategory: antineoplastic
[7] = TherapeuticCategory: antihistaminic
[8] = TherapeuticCategory: diagnostic aid
[9] = TherapeuticCategory: glucocorticoid
[10] = TherapeuticCategory: antidepressant
[11] = TherapeuticCategory: vasodilator

CC(CN(C)C)CN1c2ccccc2Sc2ccccc21 (stereo not drawn) was tested, and the maximum recommended daily dose (mmol/kg-bw/day) (TherapeuticCategory: antipruritic) was 0.0056.

With NC(N)=NCCN1CCCCCCC1 the maximum recommended daily dose (mmol/kg-bw/day) [1] was 0.0042.

OC(CCN1CCCCC1)(c1ccccc1)C1CCCCC1 (stereo not drawn) was tested, and the maximum recommended daily dose (mmol/kg-bw/day) (TherapeuticCategory: anticholinergic, antiparkinsonian) was 0.000829.

In the case of O=C1CN2CCOC2(c2ccccc2F)c2cc(Cl)ccc2N1CCO (stereo not drawn), the maximum recommended daily dose (mmol/kg-bw/day) (TherapeuticCategory: anxiolytic) is reported as 0.000531.

In the case of NC(N)=Nc1nc(CSCC/C(N)=N/S(N)(=O)=O)cs1, the maximum recommended daily dose (mmol/kg-bw/day) (TherapeuticCategory: antiulcerative) is reported as 0.00198.

Cc1cccc(CN2CCN(C(c3ccccc3)c3ccc(Cl)cc3)CC2)c1 (stereo not drawn) was tested, and the maximum recommended daily dose (mmol/kg-bw/day) [2] was 0.00427.

CCCN[C@H]1CCc2nc(N)sc2C1 gave a maximum recommended daily dose (mmol/kg-bw/day) (TherapeuticCategory: antiparkinsonian, dopamine receptor agonist) of 0.000473.

CC(C)(C)NCC(O)COc1cccc2c1CCCC2=O (stereo not drawn) was tested, and the maximum recommended daily dose (mmol/kg-bw/day) (TherapeuticCategory: antiglaucoma) was 0.000858.

CCCCCCCCCC(=O)O[C@H]1CC[C@H]2[C@@H]3CCC4=CC(=O)CC[C@@H]4[C@H]3CC[C@]12C was tested, and the maximum recommended daily dose (mmol/kg-bw/day) (TherapeuticCategory: anabolic) was 0.00777.

With C[C@]12CC[C@@H]3c4ccc(O)cc4CC[C@H]3[C@@H]1CC[C@@H]2O the maximum recommended daily dose (mmol/kg-bw/day) (TherapeuticCategory: estrogen) was 0.00184.

CC(Oc1c(Cl)cccc1Cl)C1=NCCN1 (stereo not drawn) gave a maximum recommended daily dose (mmol/kg-bw/day) [1] of 0.000154.

Work on CN(C)CCc1c[nH]c2ccc(Cn3cncn3)cc12 yielded a maximum recommended daily dose (mmol/kg-bw/day) (TherapeuticCategory: antimigraine) of 0.00186.

COCC1=C(C(=O)O)N2C(=O)[C@@H](NC(=O)/C(=N\OC)c3csc(N)n3)[C@H]2SC1 showed a maximum recommended daily dose (mmol/kg-bw/day) [3] of 0.0234.

OCc1cc(C(O)CNCCCCCCOCCCCc2ccccc2)ccc1O (stereo not drawn) gave a maximum recommended daily dose (mmol/kg-bw/day) [4] of 3.37e-06.

With COc1cc(C[C@@H]2NCCc3cc(O)c(O)cc32)cc(OC)c1OC the maximum recommended daily dose (mmol/kg-bw/day) [4] was 0.000869.

In the case of CC(C)COC(=O)c1ccc(N)cc1, the maximum recommended daily dose (mmol/kg-bw/day) [5] is reported as 0.0345.

CCCCC(=O)O[C@H]1CC[C@H]2[C@@H]3CCc4cc(O)ccc4[C@H]3CC[C@]12C was tested, and the maximum recommended daily dose (mmol/kg-bw/day) (TherapeuticCategory: estrogen) was 0.0014.

Molecule CCCc1c2oc(C(=O)O)cc(=O)c2cc2c(=O)cc(C(=O)O)n(CC)c12 has a maximum recommended daily dose (mmol/kg-bw/day) (TherapeuticCategory: antiallergic, antiasthmatic) of 0.000627.

Cc1onc(-c2ccccc2)c1C(=O)N[C@@H]1C(=O)N2[C@@H]1SC(C)(C)[C@@H]2C(=O)O showed a maximum recommended daily dose (mmol/kg-bw/day) [3] of 0.249.

COc1ccc(CC2c3cc(OC)c(OC)cc3CC[N+]2(C)CCC(=O)OCCCCCOC(=O)CC[N+]2(C)CCc3cc(OC)c(OC)cc3C2Cc2ccc(OC)c(OC)c2)cc1OC (stereo not drawn) gave a maximum recommended daily dose (mmol/kg-bw/day) (TherapeuticCategory: skeletal muscle relaxant) of 0.000402.

Work on N#Cc1ccc(C(c2ccc(C#N)cc2)n2cncn2)cc1 yielded a maximum recommended daily dose (mmol/kg-bw/day) [6] of 0.000146.

CC1(C)S[C@@H]2[C@H](NC(=O)COc3ccccc3)C(=O)N2[C@H]1C(=O)O showed a maximum recommended daily dose (mmol/kg-bw/day) [3] of 0.0713.

CC(=O)OCC(=O)[C@H]1CC[C@H]2[C@@H]3CCC4=CC(=O)CC[C@]4(C)[C@H]3CC[C@]12C was tested, and the maximum recommended daily dose (mmol/kg-bw/day) (TherapeuticCategory: mineralcorticoid) was 0.00448.

In the case of Cc1ncc(C[n+]2csc(CCO)c2C)c(N)n1, the maximum recommended daily dose (mmol/kg-bw/day) (TherapeuticCategory: enzyme cofactor vitamin) is reported as 0.00555.

Clc1cccc(Cl)c1NC1=NCCN1 was tested, and the maximum recommended daily dose (mmol/kg-bw/day) [1] was 0.000174.

In the case of CN(C)CCOC(c1ccc(Cl)cc1)c1ccccn1 (stereo not drawn), the maximum recommended daily dose (mmol/kg-bw/day) [7] is reported as 0.00138.

N[C@@H](Cc1ccc(N(CCCl)CCCl)cc1)C(=O)O gave a maximum recommended daily dose (mmol/kg-bw/day) [6] of 0.000328.

For Cc1cc(CC(=O)O)n(C)c1C(=O)c1ccc(Cl)cc1, the maximum recommended daily dose (mmol/kg-bw/day) (TherapeuticCategory: analgesic, anti inflammatory) was 0.0343.

In the case of CCOC(=O)c1ccc(N)cc1, the maximum recommended daily dose (mmol/kg-bw/day) [5] is reported as 0.00726.

O=C(CCCCC(=O)Nc1c(I)cc(I)c(C(=O)O)c1I)Nc1c(I)cc(I)c(C(=O)O)c1I was tested, and the maximum recommended daily dose (mmol/kg-bw/day) [8] was 0.147.

For CC(C)N=C(N)/N=C(\N)Nc1ccc(Cl)cc1, the maximum recommended daily dose (mmol/kg-bw/day) (TherapeuticCategory: antimalarial) was 0.0131.

CCC1C(=O)OCC1Cc1cncn1C (stereo not drawn) was tested, and the maximum recommended daily dose (mmol/kg-bw/day) (TherapeuticCategory: antiglaucoma, miotic) was 0.0024.

In the case of CC(=O)N(CC(C)C(=O)O)c1c(I)cc(I)c(N)c1I (stereo not drawn), the maximum recommended daily dose (mmol/kg-bw/day) [8] is reported as 0.122.

For C[C@@H](Cc1ccccc1)N(C)Cc1ccccc1, the maximum recommended daily dose (mmol/kg-bw/day) (TherapeuticCategory: anorexic) was 0.0104.

Work on CC(=O)OCC(=O)[C@@]1(O)CC[C@H]2[C@@H]3CCC4=CC(=O)C=C[C@]4(C)[C@H]3[C@@H](O)C[C@@]21C yielded a maximum recommended daily dose (mmol/kg-bw/day) [9] of 0.00827.

With CCCC(CCC)C(N)=O the maximum recommended daily dose (mmol/kg-bw/day) (TherapeuticCategory: anticonvulsant) was 0.232.

With COc1ccc(C(CN(C)C)C2(O)CCCCC2)cc1 (stereo not drawn) the maximum recommended daily dose (mmol/kg-bw/day) [10] was 0.0225.

In the case of CCN(CC)C(=O)N[C@H]1C=C2c3cccc4[nH]cc(c34)C[C@H]2N(C)C1, the maximum recommended daily dose (mmol/kg-bw/day) (TherapeuticCategory: antimigraine, prolactin inhibitor) is reported as 0.000246.

CC(C1=C(CCN(C)C)Cc2ccccc21)c1ccccn1 (stereo not drawn) showed a maximum recommended daily dose (mmol/kg-bw/day) [7] of 0.000342.

Work on CN1CCC2=C(C1)C(c1ccccc1)c1ccccc12 (stereo not drawn) yielded a maximum recommended daily dose (mmol/kg-bw/day) [7] of 0.00957.

C[C@]12C=CC(=O)C=C1C(Cl)=C[C@@H]1[C@@H]2[C@@H](O)C[C@@]2(C)[C@H]1CC[C@]2(O)C(=O)CO was tested, and the maximum recommended daily dose (mmol/kg-bw/day) [9] was 0.000529.

With O=c1[nH]c(=S)[nH]cc1I the maximum recommended daily dose (mmol/kg-bw/day) (TherapeuticCategory: thyroid inhibitor) was 0.0197.

COc1cccc2c1C(=O)c1c(O)c3c(c(O)c1C2=O)C[C@@](O)(C(=O)CO)C[C@@H]3O[C@H]1C[C@H](N)[C@H](O)[C@H](C)O1 gave a maximum recommended daily dose (mmol/kg-bw/day) [6] of 0.00447.

For CCOC(=O)CCCCCCCCC(C)c1ccc(I)cc1 (stereo not drawn), the maximum recommended daily dose (mmol/kg-bw/day) [8] was 0.3.

Molecule C[C@H](CSC(=O)[C@@H](C)NC(=O)C1CCCCC1)C(=O)N1CCC[C@H]1C(=O)O has a maximum recommended daily dose (mmol/kg-bw/day) [1] of 0.00251.

Work on COc1ccc2c3c1O[C@H]1C(=O)CC[C@H]4[C@@H](C2)N(C)CC[C@]314 yielded a maximum recommended daily dose (mmol/kg-bw/day) (TherapeuticCategory: analgesic) of 0.00251.

For CC(CCc1ccccc1)NC(C)C(O)c1ccc(O)cc1 (stereo not drawn), the maximum recommended daily dose (mmol/kg-bw/day) [11] was 0.00267.

CN(C)CCN1C(=O)c2ccccc2N(C)c2ccccc21 was tested, and the maximum recommended daily dose (mmol/kg-bw/day) [10] was 0.0406.

Work on CC(C)C[C@H](N)C(=O)O yielded a maximum recommended daily dose (mmol/kg-bw/day) (TherapeuticCategory: nutrient) of 0.762.

CCN(CC)CCSC(=O)C(c1ccccc1)c1ccccc1 showed a maximum recommended daily dose (mmol/kg-bw/day) (TherapeuticCategory: anticholinergic, smooth muscle relaxant) of 0.0153.

With CCn1cc(C(=O)O)c(=O)c2ccc(C)nc21 the maximum recommended daily dose (mmol/kg-bw/day) [3] was 0.287.

Work on C=CCN1CC[C@]23c4c5ccc(O)c4O[C@H]2C(=O)CC[C@@]3(O)[C@H]1C5 yielded a maximum recommended daily dose (mmol/kg-bw/day) (TherapeuticCategory: narcotic antagonist) of 0.000305.

Molecule OCC(O)CO has a maximum recommended daily dose (mmol/kg-bw/day) [8] of 10.8.

With CCCCc1nc(Cl)c(CO)n1Cc1ccc(-c2ccccc2-c2nn[nH]n2)cc1 the maximum recommended daily dose (mmol/kg-bw/day) [1] was 0.00395.

CC(C)[N+](C)(CCOC(=O)C1c2ccccc2Oc2ccccc21)C(C)C showed a maximum recommended daily dose (mmol/kg-bw/day) (TherapeuticCategory: anticholinergic) of 0.00279.

For C[C@@]12CCCCC[C@@H](Cc3ccc(O)cc31)[C@@H]2N, the maximum recommended daily dose (mmol/kg-bw/day) (TherapeuticCategory: narcotic analgesic) was 0.000681.

For CC(COc1ccccc1)NC(C)C(O)c1ccc(O)cc1 (stereo not drawn), the maximum recommended daily dose (mmol/kg-bw/day) [11] was 0.00441.

CC(=O)OCC(CCn1cnc2cnc(N)nc21)COC(C)=O showed a maximum recommended daily dose (mmol/kg-bw/day) (TherapeuticCategory: antiviral) of 0.0778.

C=C1c2cccc(O)c2C(O)=C2C(=O)[C@]3(O)C(O)=C(C(N)=O)C(=O)[C@@H](N(C)C)[C@@H]3[C@@H](O)[C@H]12 showed a maximum recommended daily dose (mmol/kg-bw/day) [3] of 0.0339.

Cc1nccn1CC1CCc2c(c3ccccc3n2C)C1=O (stereo not drawn) showed a maximum recommended daily dose (mmol/kg-bw/day) [2] of 0.00136.

Molecule Nc1ccc(S(=O)(=O)c2ccc(N)cc2)cc1 has a maximum recommended daily dose (mmol/kg-bw/day) (TherapeuticCategory: antibacterial, dermatitis herpetiformis suppressant) of 0.0201.

Work on C[C@]12CCC(=O)C=C1CC[C@@H]1[C@@H]2C(=O)C[C@@]2(C)[C@H]1CC[C@]2(O)C(=O)CO yielded a maximum recommended daily dose (mmol/kg-bw/day) [9] of 0.0139.

For COc1cccc2c1C(=O)c1c(O)c3c(c(O)c1C2=O)C[C@@](O)(C(=O)CO)C[C@@H]3O[C@H]1C[C@H](N)[C@@H](O)[C@H](C)O1, the maximum recommended daily dose (mmol/kg-bw/day) [6] was 0.00447.

C[C@@H]1C[C@@]2(C)[C@@H](CC[C@@H]3[C@@H]2CC[C@]2(C)[C@@H](O)CC[C@@H]32)CC1=O showed a maximum recommended daily dose (mmol/kg-bw/day) [6] of 0.00549.

For CN(C)CCOc1ccccc1Cc1ccccc1, the maximum recommended daily dose (mmol/kg-bw/day) [7] was 0.013.

COc1ccc2c(c1OC)C(=O)O[C@@H]2[C@H]1c2c(cc3c(c2OC)OCO3)CCN1C was tested, and the maximum recommended daily dose (mmol/kg-bw/day) (TherapeuticCategory: antitussive) was 0.00605.

In the case of CCn1ccc(NS(=O)(=O)c2ccc(N)cc2)nc1=O, the maximum recommended daily dose (mmol/kg-bw/day) [3] is reported as 0.0567.

OCC(Br)(Br)Br gave a maximum recommended daily dose (mmol/kg-bw/day) (TherapeuticCategory: anesthetic) of 0.354.
